Holding throughout (assay type): cell-based
Experiment [1] concerns LNCaP (prostate cancer). The experiment is described as follows: xCELLigence cell viability / proliferation, LNCaP. Here is the method:
Example 9—Cell Based Activity of Cell Permeable Compounds on the xCELLigence Platform
The effects of the compounds shown in FIGS. 14A-14B were tested on cancer cell lines MCF7 (breast cancer) and LNCaP (prostate cancer) using the xCELLigence platform (http://www.roche-applied-science.com/sis/xcelligence/ezhome.html). This method of measuring cell viability via measuring cell index is known in the art.
Different doses of the compounds were tested on MCF7 cells to see if there would be an effect on their cell viability.
The control compound was compared to its partner active compound (UBP037).
(§1) xCELLigence Method • Before starting the experiment add 50 μL of medium (RPMI 1640, 10% fetal bovine serum, 100 units/mL penicillin, 100 ug/mL streptomycin, and 2 mmol/L glutamine, all from GIBCO) to each well of 96 well E-plate (Roche) and place the plate in the xCELLigence platform to measure the background. • LNCaP/PNT-1 cells are seeded (LNCaPs 80000 cells/well; PNT1 3000 cells/well) in the plate in complete medium and equilibrated for 60 mins at RT before returning to the xCELLigence platform and incubating at 37° C./5% CO2. • 24 hrs after seeding, remove 100 μL of medium was removed from each well and cells were treated with compounds or DMSO diluted in 100 μL of OptiMEM (GIBCO). • Replace the plate in the xCELLigence platform • Cells growth can then be monitored in real-time by the cell index profile on the xCELLigence readout screen • Cell growth can be expressed as normalized cell index and doubling time/slope calculated using the RTCA software.

Experiment [2] has as its system PDCD4 in MCF7 cells. The experiment is described as follows: In-cell western assay for PDCD4 accumulation. Conditions: for cell based activity: general statement, different delivery vehicles; for accumulation of PDCD4, in cell western: MCF7, treatment with cell permeable compound. The protocol: In-Cell Western Assay for PDCD4 Accumulation.
To measure this an in-cell western assay was used and the peptidomimetics were delivered to the cells by nucleofection.
MCF7 cells were grown in 10 cm dishes in 10 ml DMEM+10% FBS and 1% Pen/Strep at 37° C./5% CO2. On the day of nucleofection, the dish was washed with 90% confluent MCF7 cells with 5 ml PBS, then 3 ml of Trypsin/EDTA was added and incubated at 37° C./5% CO2 for approximately 5 mins until the cells detached from the plastic. 7 ml of normal growth media was added and the number of cells present was counted using a haemocytometer.
The cells were centrifuged cells at 90 g for 10 mins at RT and the supernatant was removed. 100 μl of Nucleofection Buffer V+ Supplement was added (Lonza Biologics Cat no VCA-1003) per 8×10^5 cells, and the cells were added to peptidomimetics dissolved in <3% DMSO.
The cell/peptidomimetic mix was added to cuvettes supplied for the nucleofector and the sample was nucleofected using the recommended MCF7 programme for high cell viability (i.e. E-014). 500 μl of TPA (12-O-tetradecanoylphorbol-13-acetate)-supplemented growth media (i.e. DMEM/10% FBS/1% Pen-Strep/10 nM TPA) was added to the cuvette and 100 μl of this solution was transferred to a well of a 96 well plate and incubated at 37° C./5% CO2 for 8 hours.
The celled were fixed by removing the growth media, adding 3.7% Formaldehyde in PBS and incubating at RT for 20 mins. The plate was washed three times in PBS. And the cells were permeabilised by washing 5× for 5 mins each in PBS+0.1% Triton X-100.
The cells were blocked by adding 3% BSA in PBS-Tween to the cells and incubating at RT for 1.5 hours. An anti-PDCD4 antibody (Abcam cat no: ab80590) was added at a concentration of 1:1000 in 3% BSA in PBS-T (50 ul/well) and incubated at RT for 2.5 hours. The cells were washed 5× for 5 mins each with PBS-T before the secondary antibody (LiCor Biosciences Donkey Anti-Rabbit IRDye 800CW cat no 926-32213) was added at a concentration of 1:1000, along with the DNA stain DRAQ5 at a concentration of 1:10000, in 3% BSA in PBS-T (50 ul/well) and incubated at RT for 1 hour, protected from light.
The cells were washed cells 5× for 5 mins each with PBS-T and all the liquid was removed from the wells before the plate was read on the LiCor Biosciences Odyssey at 700 nm and 800 nm. The reading was normalised in the 800 nm channel to that in the 700 nm channel. The data are shown in FIG. 12, where DMSO was used as a negative control and 20 μM MG132 was used as a positive control. The data is presented as percentage activity with DMSO=0% and […]=100% activity. Error bars represent standard deviation from 3 replicates.
The compounds shown in FIGS. 14A-14B were synthesised to improve cell permeability. […] FIG. 16 compares the round II compounds (shown in FIGS. 14A-14B) with UBP036 in this assay. […] Inhibition of βTrCP, which is responsible for the degradation of both PDCD4 and β-catenin, causes a concomitant stabilisation and accumulation of levels of these proteins which can be measured by in cell western assay.

Experiment [3] concerns PDCD4 in MCF7 cells. The experiment can be described thus: Traditional western blot for PDCD4, MCF7.
Text: […]

The test system of experiment [4] is PNT-1 cell line. The experiment can be described thus: xCELLigence cell growth, non-malignant PNT-1. The protocol: as §1
The susceptibility of cancer cell lines versus non-cancer cell lines following treatment with the compounds was also investigated.

Experiment [5] has as its system PDCD4 in LNCaP cells. The experiment is described as follows: Traditional western blot for PDCD4, LNCaP.
Text: […]
Background: Immunoblotting shows a protein as a band on a membrane.

The values that follow come from patent publication US20190106460A1, “BINDING INHIBITORS OF THE BETA. TRANSDUCIN REPEAT-CONTAINING PROTEIN” (priority 2011, published 2019).

Entries after “also recorded” stand apart in the source; their conditions may differ. Non-standard residues stand in square brackets, D forms with d. Residues, ends and D or L forms follow the SMILES beside them. *: point of attachment. Benzenesulfonyl(4-OMe) = COc1ccc(S(=O)(=O)*)cc1; Arachidoyl = CCCCCCCCCCCCCCCCCCCC(=O)*; Phe(3-F) = N[C@@H](Cc1cccc(F)c1)C(=O)O; Stearoyl = CCCCCCCCCCCCCCCCCC(=O)*; 2Naphthoyl = O=C(c1ccc2ccccc2c1)*; Brosyl = O=S(=O)(c1ccc(Br)cc1)*; Tos = Cc1ccc(S(=O)(=O)*)cc1; Ahx = NCCCCCC(=O)O

Regarding `CCCCCCCCCCCCCCCCCC(=O)NCCCC[C@H](NC(=O)CCCCCNC(=O)[C@H](Cc1c[nH]c2ccccc12)NC(=O)CNC(=O)[C@H](CCC(=O)O)NC(=O)[C@H](Cc1ccccc1)NC(=O)[C@@H](CC(=O)O)NC(=O)[C@H](CCC(=O)O)NS(=O)(=O)c1ccc(C)cc1)C(N)=O` [Ts-EdFEGW-Ahx-K(Stearic)-NH2, reference compound] (Tos-E[dD]FEGW[Ahx]K(Stearoyl)-NH2), the “cell growth / proliferation, xCELLigence” value in experiment [1] is “levels of cell proliferation similar to that seen with DMSO”.

Turning to `COc1ccc(S(=O)(=O)N[C@H](CC(=O)O)C(=O)N[C@@H](CCC(=O)O)C(=O)NCC(=O)N[C@@H](Cc2cccc(F)c2)C(=O)N[C@@H](Cc2c[nH]c3ccccc23)C(=O)N[C@@H](CCC(=O)O)C(N)=O)cc1` [UBP022, 4-(MeO)-PhSO2-dEGF(3F)WE-NH2] ({Benzenesulfonyl(4-OMe)}-[dD]EG[Phe(3-F)]WE-NH2), the cell based activity entry in experiment [2] is reported as “display cell based activity”.

As to `CCCCCCCCCCCCCCCCCC(=O)NCCCC[C@H](NC(=O)CCCCCNC(=O)[C@H](CCC(=O)O)NC(=O)[C@H](Cc1c[nH]c2ccccc12)NC(=O)[C@H](Cc1cccc(F)c1)NC(=O)CNC(=O)[C@H](CCC(=O)O)NC(=O)[C@@H](CC(=O)O)NS(=O)(=O)c1ccc(OC)cc1)C(N)=O` [UBP037, 4-(MeO)PhSO2-dEGF(3F)WE-Ahx-K(NHCOC17H35)-NH2] ({Benzenesulfonyl(4-OMe)}-[dD]EG[Phe(3-F)]WE[Ahx]K(Stearoyl)-NH2), the “PDCD4 accumulation, traditional western blot” value in experiment [3] and in experiment [5] was “exhibited cellular activity” throughout. Also, the “accumulation of PDCD4, in cell western” value in experiment [2] is reported as “inconclusive results”. The “cell growth / proliferation, xCELLigence” value in experiment [1] is on record as “inhibit the growth; also recorded: severely restricts the proliferation”. The “cell growth, xCELLigence” value in experiment [4] was “far less effect”.

Consider `CCCCCCCCCCCCCCCCCCCC(=O)NCCCC[C@H](NC(=O)CCCCCNC(=O)[C@H](CCC(=O)O)NC(=O)[C@H](Cc1c[nH]c2ccccc12)NC(=O)[C@H](Cc1cccc(F)c1)NC(=O)CNC(=O)[C@H](CCC(=O)O)NC(=O)[C@@H](CC(=O)O)NS(=O)(=O)c1ccc(OC)cc1)C(N)=O` [UBP038, 4-(MeO)PhSO2-dEGF(3F)WE-Ahx-K(NHCOC19H39)-NH2] ({Benzenesulfonyl(4-OMe)}-[dD]EG[Phe(3-F)]WE[Ahx]K(Arachidoyl)-NH2), for which the “PDCD4 accumulation, traditional western blot” value in experiment [3] and in experiment [5] was “exhibited cellular activity” throughout. Also, the “accumulation of PDCD4, in cell western” value in experiment [2] is reported as “inconclusive results”. For the same molecule, in experiment [1], the “cell growth / proliferation, xCELLigence” value was “inhibit the growth”. Besides, the “cell growth, xCELLigence” value in experiment [4] is “far less effect”.

Regarding `NC(=O)[C@H](CCCCNC(=O)c1ccc2ccccc2c1)NC(=O)CCCCCNC(=O)[C@H](CCC(=O)O)NC(=O)[C@H](Cc1c[nH]c2ccccc12)NC(=O)[C@H](Cc1cccc(F)c1)NC(=O)CNC(=O)[C@H](CCC(=O)O)NC(=O)[C@@H](CC(=O)O)NS(=O)(=O)c1ccc(Br)cc1` [UBP090, 4-(Br)PhSO2-dEGF(3F)WE-Ahx-K(NHCO(2-Naphth))-NH2] (Brosyl-[dD]EG[Phe(3-F)]WE[Ahx]K(2Naphthoyl)-NH2), the cell based activity result in experiment [2] is given as “display cell based activity”.
